Laboratory results from patent US20260217743A1, “ETHER OF PHOSPHATIDYLCHOLINE AND PHOSPHATIDYLETHANOLAMINE, THEIR LYSO-FORMS AND MIXTURE THEREOF FOR USE IN THE TREATMENT OF A DISEASE OR DISORDER CAUSED BY A DEFICIENCY IN PLASMALOGENS” (Baker Heart and Diabetes Institute, priority 2023, published 2026).

Legend:
RAW 264.7 cells = assay: LPC(O)/LPE(O) supplementation with different SN1 compositions in RAW 264.7 cells, PE(P) level and composition; type: cell-based, mouse; conditions: 20 μM, 24 hours
Experimental: A mouse macrophage cell line, RAW 264.7 was used for this study. The cells were cultured at 37° C. with 5% CO2 in Roswell Park Memorial Institute (RPMI) 1640 medium containing L-glutamine with 1% sodium pyruvate (Gibco, USA) and 10% fetal bovine serum (Gibco, USA). The cells were passaged every week and the media replenished every two to three days until passage 30, at which point these cells were discarded. The cells were seeded in a 12-well plate at a concentration of 300,000 cells/ml of media and allowed to grow until they reached 80% confluency.
To assess the incorporation of plasmalogen precursors into cellular plasmalogens, cells were supplemented with compounds with different SN1 compositions, i.e., varying proportions of O-16:0, O-18:0, and O-18:1 of LPC(O) or LPE(O) at a concentration of 20 μM (Table 14). The plasmalogen precursors, LPC(O), and LPE(O), were dissolved in chloroform:methanol (2:1), evaporated under a stream of nitrogen gas at 40° C., and then reconstituted in RPMI medium with 2% bovine serum albumin (Sigma-Aldrich, USA). The control treatment for the cells consisted of RPMI with 2% bovine serum albumin. Once prepared, the media containing the precursors were vortexed and sonicated in an ultrasonic water bath (Soniclean, Adelaide, SA, Australia) for 15 minutes.
Lipids were extracted from cells using the butanol-methanol method, following established protocols. […] These vials were then frozen at −80° C. until they were ready for mass spectrometry analysis.
A targeted lipidomic approach using LC-MS/MS, following a previously published protocol (Huynh, et al., “High-Throughput Plasma Lipidomics: Detailed Mapping of the Associations with Cardiometabolic Risk Factors,” Cell Chem. Biol., 2019 Jan. 17; 26(1):71-84.e4, doi: 10.1016/j.chembiol.2018.10.008), was utilised for the samples from this study. […] Multiple lipid species belonging to different lipid classes including phosphatidylcholine (PC), alkylphosphatidylcholine [PC(O)], alkenylphosphatidylcholine [PC(P)], phosphatidylethanolamine (PE), alkylphosphatidylethanolamine [PE(O)], alkenylphosphatidylethanolamine [PE(P)] or PE plasmalogen, lysophosphatidylcholine (LPC), lysoalkylphosphatidylcholine [LPC(O)], lysoalkenylphosphatidylcholine [LPC(P)], lysophosphatidylethanolamine (LPE), lysoalkylphosphatidylethanolamine [LPE(O)], lysoalkenylphosphatidylethanolamine [LPE(P)], triacylglycerol (TG) and alkyldiacylglycerol [TG(O)] were measured. The lipid species measured in this study are listed in Supplementary Table 1, which is included at the end of this Example. […]
For data processing, vendor software Qualitative Analysis B.07.00 and QQQ Quantitative Analysis B.10.0.0 were utilized. Relative quantification of lipid species was determined by comparing them to the corresponding internal standards. […]

3T3-L1 cells = assay: LPC(O)/LPE(O) supplementation with different SN1 compositions in 3T3-L1 cells, PE(P) level and composition; type: cell-based, mouse; conditions: 20 μM, 24 hours
Source text: The method employed in this study was the same as described in example 5, with the exception of the cell line and culture medium used. For this study, a mouse fibroblast/pre-adipocyte cell line, 3T3-L1, was utilised and cultured in Dulbecco's Modified Eagle Medium (DMEM) (Gibco, USA), supplemented with 1% sodium pyruvate (Gibco, USA) and 10% newborn calf serum (Gibco, New Zealand).

SMILES	efficacy in elevating the endogenous PE(P) level (RAW 264.7 cells)	cellular PE(P) levels (3T3-L1 cells)
CCCCCCCCCCCCCCCCOC[C@@H](O)COP(=O)(O)OCCN [LPE(O-16:0) 100%]	equal effectiveness	
CCCCCCCCCCCCCCCCCCOC[C@@H](O)COP(=O)(O)OCCN [LPE(O-18:0) 100%]	equal effectiveness	
CCCCCCCCCCCCCCCCOC[C@@H](O)COP(=O)([O-])OCC[N+](C)(C)C [LPC(O-16:0) 100%]	greater efficacy	
CCCCCCCC/C=C\CCCCCCCCOC[C@@H](O)COP(=O)(O)OCCN [LPE(O-18:1) 100%]	comparatively less effective	appeared to reduce these levels
